# Source: patent publication US20250188151A1, “C-JUN ANTAGONIST PEPTIDES” (The University of Bath, priority 2022, published 2025)
# Bridge positions count the residues as written; N and C are the ends. Peptide text beside a SMILES is read from it.
# T1: cJun bZIP (human, UniProt P05412 252-308, limits assumed)
# T1 construct: Purified from a His-SUMO fusion with the tag cleaved off; also called c-Jun bZIP domain; 60 amino acid c-Jun bZIP construct
# T1 chain: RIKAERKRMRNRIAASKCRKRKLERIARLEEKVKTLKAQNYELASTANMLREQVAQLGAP
# What was measured:
# cJun/TRE DNA interaction = molecular target: T2, cJun/TRE DNA interaction (Homo sapiens, UniProt P05412, S292Y); test: CD cJun/TRE DNA antagonism (shift of TRE DNA peak at ~281 nm, Hill fit); type: biochemical
# T2 construct: The same 60 amino acid c-Jun bZIP construct was used for all experiments; His-SUMO (N, cleaved yes); made in house; host or cells: E. coli
# From the text: Briefly, in TBS the coding region for the essential gene dihydrofolate reductase (DHFR) is mutated to incorporate TRE sites so that introduction of c-Jun to this gene inside E. coli produces a transcriptional block that abrogates cell proliferation. The TRE site-bound c-Jun molecules sterically prevent RNA polymerase transcribing the essential gene and this can only be restored upon introduction of an effective c-Jun/TRE antagonist. Consequently, the survival of a particular cell is controlled by the ability of a peptide library member to remove the c-Jun transcriptional block and therefore to restore DHFR activity. TBS thus facilitates the identification of therapeutically valuable sequences. Further details for the TBS assay are provided in WO2020128015, which is incorporated herein by reference in its entirety. […] The TRE-DNA construct produces a positive CD peak at ˜281 nm, which decreases in intensity upon c-Jun binding. […] This method allows for the calculation of an IC50 value by fitting the titration data to a Hill equation. In some embodiments, the c-Jun antagonist is able to inhibit the DNA-binding activity of c-Jun within 10-fold of the ability of HingeW to inhibit the DNA-binding activity of c-Jun (e.g. the c-Jun antagonist has a reduced ability to inhibit the DNA-binding activity of c-Jun that is within 10-fold of that determined for HingeW). In some embodiments, the c-Jun antagonist is able to inhibit the DNA-binding activity of c-Jun within 9-fold, preferably within 8-fold, more preferably within 7-fold, even more preferably within 6-fold, yet more preferably within 5-fold of the ability of HingeW to inhibit the DNA-binding activity of c-Jun. The ability of the c-Jun antagonist and HingeW to inhibit the DNA-binding activity may be measured using the TBS assay (e.g. by quantifying the number of colonies) or by determining the IC50 using a circular dichroism assay described herein. Optionally, the c-Jun antagonist may have this activity when cross-linked. Methods for cross-linking peptides are described in more detail below.
# Therefore, the acidic domain was the initial focus for optimisation. 1 was iteratively truncated (2-6) to investigate the effect on c-Jun binding and c-Jun/TRE DNA antagonism. […] Thermal denaturation experiments were then used to determine the Tm of peptide-c-Jun heterodimers, which was used as an approximate measure of target engagement. CD was also used to investigate the ability of the functional activity of peptides in antagonising the c-Jun/TRE DNA interaction. The TRE-DNA construct used produces a positive CD peak at ˜281 nm (no c-Jun absorbance at this wavelength allows for direct measurement of DNA upon binding) which decreases in intensity upon c-Jun binding. […] This allowed for the calculation of an IC50 value by fitting the titration data to a Hill equation. […] The same 60 amino acid c-Jun bZIP construct was used for all experiments, regardless of antagonist peptide length.
# Serum stability (LC-MS) = type: in vitro ADME; settings: human serum; for remaining at 96 h, 30 μM / metabolised at 24 h, 30 μM: 37° C.; for remaining at 96 h, 30 μM: after 96 hours, read-out: peak intensities relative to starting values; for metabolised at 24 h, 30 μM: read-out: degraded
# Experimental: Serum Stability: Peptide stocks (600 μM) were prepared in water and 50 μL added to 950 μL human serum (Merck) before incubation at 37° C. […] The supernatant was analysed by LC-MS and quantified using the sum of the two largest charge state intensities (1: 9+, 10+; 23,24: 3+, 4+).
# cJun bZIP [1] = molecular target: cJun bZIP (Homo sapiens, UniProt P05412, S292Y); test: CD spectra and thermal denaturation of peptide/cJun heterodimers; settings: for Tm (° C.): peptide (5 μM)/c-Jun (5 μM) heterodimer, Table 6
# [2] = CD spectra and thermal denaturation of peptide-only samples (helicity, homodimer Tm)
# Experimental: Circular Dichroism (CD): An Applied Photophysics Chirascan was used for CD measurements, with a 200 μL sample in a 1 mm path length CD cell. Protein/DNA samples were suspended in 150 mM potassium phosphate, 150 mM potassium fluoride and 5 mM TCEP at pH 7.4 and were equilibrated for 30 minutes before measurement. […] These scans were averaged and converted to molar residue ellipticities (MRE). Thermal denaturation experiments were performed by measuring the ellipticity at 222 nm over a 1 to 90° C. gradient at 1° C. increments. Post-melt scans at 20° C. confirmed the transitions were reversible as they overlaid within 10% of the pre-melt scan.
# Circular Dichroism (CD): An Applied Photophysics Chirascan was used for CD measurements, with a 200 μL sample in a 1 mm path length CD cell. Protein/DNA samples were suspended in 150 mM potassium phosphate, 150 mM potassium fluoride and 5 mM TCEP at pH 7.4 and were equilibrated for 30minutes before measurement. […] Thermal denaturation experiments were performed by measuring the ellipticity at 222 nm over a 1 to 90° C. gradient at 1° C. increments. Post-melt scans at 20° C. confirmed the transitions were reversible as they overlaid within 10% of the pre-melt scan.
# Peptide helicity was determined by quantifying the CD signal at 222 nm of peptide only samples. Thermal denaturation experiments were then used to determine the Tm of peptide-c-Jun heterodimers, which was used as an approximate measure of target engagement. […] The same 60 amino acid c-Jun bZIP construct was used for all experiments, regardless of antagonist peptide length.
# cJun = cJun (Homo sapiens, UniProt P05412, S292Y); test: Isothermal titration calorimetry, Example 2 (PEAQ-ITC); type: binding; set-up: The same 60 amino acid c-Jun bZIP construct was used for all experiments; His-SUMO (N, cleaved yes); made in house; host or cells: E. coli; settings: for ΔG / ΔH / −TΔS / Stoichiometry, n: ITC; for Stoichiometry, n: c-Jun-peptide interaction
# Experimental: 2 μL injections of antagonist peptide at 25-200 μM were injected into the cell containing cJun at 2.5-20 μM. Software was used to record and analyse the heat change upon addition. Control experiments involved the injection of the antagonist peptide sample into the cell containing ITC buffer alone to determine the heat of dilution which was subtracted. The resulting binding data were fit to a one site binding model to extract the enthalpy change of binding (ΔH) and the equilibrium binding constant (KD), from which the free energy change of binding (ΔG) and the entropy change of binding (ΔS) was calculated (Wiseman et al., 1989). Thermodynamic parameters are presented as an average of two independent experiments with errors given as one standard deviation.
# cJun bZIP [3] = molecular target: T1, cJun bZIP; test: CD thermal denaturation
# cJun bZIP [4] = molecular target: T1, cJun bZIP; test: cell-based or functional assay
# cJun bZIP [5] = molecular target: T1, cJun bZIP; test: CD thermal denaturation, peptide 5 µM and c-Jun 5 µM
# cJun bZIP [6] = molecular target: T1, cJun bZIP; test: ITC (PEAQ-ITC), peptide injected into cJun, one site model
IC50 CD (cJun bZIP [4]) [µM],Molecule,"remaining at 96 h, 30 μM (Serum stability (LC-MS)) [%]","metabolised at 24 h, 30 μM (Serum stability (LC-MS)) [%]",Tm (° C.) (cJun bZIP [1]) [°C],ΔG (cJun) [kcal/mol],ΔH (cJun) [kcal/mol],−TΔS (cJun) [kcal/mol],"Stoichiometry, n (cJun)",Tm (° C.) of peptide-c-Jun heterodimer (cJun bZIP [5]) [° C.],also measured
,"CC[C@H](C)[C@H](NC(=O)[C@H](CCC(=O)O)NC(=O)[C@H](CCCCN)NC(=O)[C@H](CCCNC(=N)N)NC(=O)[C@H](CC(C)C)NC(=O)[C@H](C)NC(=O)[C@H](Cc1ccc(O)cc1)NC(=O)[C@H](CC(N)=O)NC(=O)[C@H](CCCNC(=N)N)NC(=O)[C@H](CCC(=O)O)NC(=O)[C@H](CCC(=O)O)NC(=O)[C@H](CC(C)C)NC(=O)[C@H](CCC(N)=O)NC(=O)[C@H](CCC(=O)O)NC(=O)[C@@H](NC(=O)[C@H](CCC(=O)O)NC(=O)[C@@H]1CC(=O)NCCCC[C@H](NC(=O)[C@H](CCC(=O)O)NC(=O)[C@H](CCC(=O)O)NC(=O)[C@@H](NC(=O)[C@@H](NC(=O)[C@H](CC(C)C)NC(=O)[C@H](CCC(=O)O)NC(=O)[C@H](CCC(=O)O)NC(=O)[C@H](C)NC(=O)[C@H](CCC(=O)O)NC(C)=O)C(C)C)C(C)C)C(=O)N[C@@H](C(C)C)C(=O)N[C@@H](CC(C)C)C(=O)N[C@@H](CCC(=O)O)C(=O)N1)[C@@H](C)CC)C(=O)N[C@H]1CCCCNC(=O)C[C@@H](C(=O)N[C@@H](CCC(N)=O)C(N)=O)NC(=O)[C@H](CCC(N)=O)NC(=O)[C@H](CC(C)C)NC(=O)[C@H](CC(=O)O)NC1=O [Peptide 24] (Ac-EAEELVVEEKVLEDEIEQLEERNYALRKEIKDLQDQ-NH2; lactam 10-14, 31-35 (inferred))",35,7,63.2 ± 1.3,-10.95 ± 0.241,-30.55 ± 0.624,19.6 ± 0.669,1.05 ± 0.01,,change in IC50 compared to the best single lactamised peptide (cJun/TRE DNA interaction; P=0.02): significant decrease in IC50 value; serum stability (Serum stability (LC-MS); LC-MS): highest stability; change in heterodimer Tm compared to the best single lactamised peptide (cJun bZIP [1]): no significant change in heterodimer Tm; increase in peptide helicity from 1 [2]: 20%; more helical compared to the best single lactamised peptide [2]: ~4%
,CC[C@H](C)[C@H](NC(=O)[C@H](CCC(=O)O)NC(=O)[C@H](CCCCN)NC(=O)[C@H](CCCNC(=N)N)NC(=O)[C@H](CC(C)C)NC(=O)[C@H](C)NC(=O)[C@H](Cc1ccc(O)cc1)NC(=O)[C@H](CC(N)=O)NC(=O)[C@H](CCCNC(=N)N)NC(=O)[C@H](CCC(=O)O)NC(=O)[C@H](CCC(=O)O)NC(=O)[C@H](CC(C)C)NC(=O)[C@H](CCC(N)=O)NC(=O)[C@H](CCC(=O)O)NC(=O)[C@@H](NC(=O)[C@H](CCC(=O)O)NC(=O)[C@H](CCC(=O)O)NC(=O)[C@H](CCC(=O)O)NC(=O)[C@H](CC(C)C)NC(=O)[C@@H](NC(=O)[C@H](CC(=O)O)NC(=O)[C@H](CCC(=O)O)NC(=O)[C@H](CCC(=O)O)NC(=O)[C@@H](NC(=O)[C@@H](NC(=O)[C@H](CC(C)C)NC(=O)[C@H](CCC(=O)O)NC(=O)[C@H](CCC(=O)O)NC(=O)[C@H](C)NC(=O)[C@H](CCC(=O)O)NC(C)=O)C(C)C)C(C)C)C(C)C)[C@@H](C)CC)C(=O)N[C@H]1CCCCNC(=O)C[C@@H](C(=O)N[C@@H](CCC(N)=O)C(N)=O)NC(=O)[C@H](CCC(N)=O)NC(=O)[C@H](CC(C)C)NC(=O)[C@H](CC(=O)O)NC1=O [Peptide 23] (Ac-EAEELVVEEDVLEEEIEQLEERNYALRKEIKDLQDQ-NH2; lactam 31-35 (inferred)),17,21,65.0 ± 1.4,-9.661 ± 0.117,-23.6 ± 0.607,13.95 ± 0.619,0.97 ± 0.02,,fold lower IC50 than 11 (cJun/TRE DNA interaction; P=0.003): 1.6 fold; heterodimer ΔTm compared to parent sequence 11 (cJun bZIP [1]): ~8 °C; heterodimer ΔTm from lactamisation (cJun bZIP [1]; cyclised vs its linear form): ~9 °C; change in fraction helicity from lactamisation ([2]; cyclised vs its linear form): ~8%; Kd (cJun): 0.0866 ± 0.017 µM
92.5,"Ac-KEAEDLVVEEDVLEEEIEQLEERNYALRKEIKDLQDQ-NH2 (lactam (positions not given here); also: one i to i+4 K-D lactam bridge, pair not given here, Synthetic, NΔ19 CΔ7; also called cyclised form of 12/13) [HingeW variant peptide 13]",,,,,,,,58.5,heterodimer ΔTm against parent sequence 11 (cJun bZIP [3]): ~1 ° C.
81.1,"Ac-EAKELVDEEDVLEEEIEQLEERNYALRKEIEDLQKQ-NH2 (lactam 3-7, Synthetic, NΔ20 CΔ7; also called cyclised form of 14/15) [HingeW variant peptide 15]",,,,,,,,59.4,heterodimer ΔTm from lactamisation (15 against linear 14) (cJun bZIP [3]): ~2 ° C.
74.9,"Ac-EAEELVVEEKVLEDEIEQLEERNYALRKEIEDLQKQ-NH2 (lactam 10-14; SMILES CC[C@H](C)[C@H](NC(=O)[C@H](CCC(=O)O)NC(=O)[C@H](CCCCN)NC(=O)[C@H](CCCNC(=N)N)NC(=O)[C@H](CC(C)C)NC(=O)[C@H](C)NC(=O)[C@H](Cc1ccc(O)cc1)NC(=O)[C@H](CC(N)=O)NC(=O)[C@H](CCCNC(=N)N)NC(=O)[C@H](CCC(=O)O)NC(=O)[C@H](CCC(=O)O)NC(=O)[C@H](CC(C)C)NC(=O)[C@H](CCC(N)=O)NC(=O)[C@H](CCC(=O)O)NC(=O)[C@@H](NC(=O)[C@H](CCC(=O)O)NC(=O)[C@@H]1CC(=O)NCCCC[C@H](NC(=O)[C@H](CCC(=O)O)NC(=O)[C@H](CCC(=O)O)NC(=O)[C@@H](NC(=O)[C@@H](NC(=O)[C@H](CC(C)C)NC(=O)[C@H](CCC(=O)O)NC(=O)[C@H](CCC(=O)O)NC(=O)[C@H](C)NC(=O)[C@H](CCC(=O)O)NC(C)=O)C(C)C)C(C)C)C(=O)N[C@@H](C(C)C)C(=O)N[C@@H](CC(C)C)C(=O)N[C@@H](CCC(=O)O)C(=O)N1)[C@@H](C)CC)C(=O)N[C@@H](CCC(=O)O)C(=O)N[C@@H](CC(=O)O)C(=O)N[C@@H](CC(C)C)C(=O)N[C@@H](CCC(N)=O)C(=O)N[C@@H](CCCCN)C(=O)N[C@@H](CCC(N)=O)C(N)=O, Synthetic, NΔ20 CΔ7; also called cyclised form of 16/17) [HingeW variant peptide 17]",,,,,,,,64,"increase in cJun heterodimer Tm from its linear form 16 (cJun bZIP [3]): ~9 ° C.; -TΔS (cJun bZIP [6]): 4.34 kcal/mol; Kd (cJun bZIP [6]): 0.0696 µM; Stoichiometry, n (cJun bZIP [6]): 1.2; ΔG (cJun bZIP [6]): -9.77 kcal/mol; ΔH (cJun bZIP [6]): -14.1 kcal/mol"
